The values below come from patent US20220296566A1, “COMBINATION PRODUCT CONTAINING LIMONOID COMPOUND AND ALPHA-GLUCOSIDASE INHIBITOR” (ZHEJIANG YANGSHENGTANG INSTITUTE OF NATURAL MEDICATION CO., …, priority 2019, published 2022).

This assay deals with STZ mice. In words: Blood glucose in STZ mouse pancreatic islet β-cell injury model (Example 1). The class given is in vivo. To be noted: STZ ICR mice; single agent 0.02 g/kg per day by gavage, two weeks; 1 h after last administration; mean ± SD. An excerpt:
Effects of limonoid compound, acarbose or combination thereof on blood glucose in mouse pancreatic islet (3-cell injury model […]
Gavage doses: the gavage dose was 0.02 g/kg per day for the limonin group, the gavage dose was 0.02 g/kg per day for the isolimonic acid group, the gavage dose was 0.02 g/kg per day for the limonin glycoside group, the gavage dose was 0.02 g/kg per day for the isolimonic acid glycoside group, the gavage dose of acarbose was 0.02 g/kg per day for the acarbose group, limonin at a dose of 0.01 g/kg and acarbose at a dose of 0.01 g/kg were simultaneously gavaged per day for the limonin/acarbose combination group, isolimonic acid at a dose of 0.01 g/kg and acarbose at a dose of 0.01 g/kg were simultaneously gavaged per day for the isolimonic acid/acarbose combination group, limonin glycoside at a dose of 0.01 g/kg and acarbose at a dose of 0.01 g/kg were simultaneously gavaged per day for the limonin glycoside/acarbose combination group, isolimonic acid glycoside at a dose of 0.01 g/kg and acarbose at a dose of 0.01 g/kg were simultaneously gavaged per day for the isolimonic acid glycoside/acarbose combination group, the gavage volume was 10 mL/kg, and the normal group and the model group were administrated with 10 mL/kg of distilled water. […] The data were expressed as mean and standard deviation. […]

On to `C[C@H]1O[C@H](O[C@H]2[C@H](O)[C@@H](O)[C@@H](O[C@H]3[C@H](O)[C@@H](O)C(O)O[C@@H]3CO)O[C@@H]2CO)[C@H](O)[C@@H](O)[C@@H]1N[C@H]1C=C(CO)[C@@H](O)[C@H](O)[C@H]1O` (stereo partly shown) [Acarbose, acarbose], for which the Blood glucose value was found to be 22.1 ± 3.4 mmol/L.
